# From ChEMBL document CHEMBL3390831, “Design, synthesis, and structureactivity relationships of indole-3-carboxamides as novel water soluble cannabinoid CB1 receptor agonists” (Medchemcomm, 2010)
# Experiments:
# Cannabinoid receptor 1 [1] = molecular target: T1, Cannabinoid receptor 1 (Homo sapiens, UniProt P21554)
# Description: Agonist activity at human cannabinoid CB1 receptor expressed in CHO cells co-expressing AP-1 response element after 5 hrs by luciferase reporter gene assay
# Mus musculus [2] = assay: Antinociceptive activity in iv dosed ICR mouse assessed as increase of tail flick latency after 20 to 60 mins by tail flick latency test; assay type: functional, organism-based
# [3] = Aqueous solubility of the compound in phosphate buffered saline at pH 7 by shake-flask method; assay type: physicochemical
# [4] = Aqueous solubility of the compound in citrate buffer at pH 5 by shake-flask method; assay type: physicochemical
# Cannabinoid receptor 2 = Cannabinoid receptor 2 (Homo sapiens, UniProt P34972); assay: Displacement of [3H]-CP55940 from human cannabinoid CB2 receptor expressed in Sf9 insect cells after 70 mins by scintillation counting
# Homo sapiens [5] = organism: Homo sapiens; assay: Selectivity ratio of Ki for human ERG to Ki for human cannabinoid CB1 receptor
# Homo sapiens [6] = organism: Homo sapiens; assay: Selectivity ratio of Ki for human ERG to Ki for human cannabinoid CB2 receptor
# [7] = Intrinsic clearance in human liver microsomes; assay type: ADME; conditions: read-out: CLH
# [8] = Intrinsic clearance in mouse liver microsomes; assay type: ADME; conditions: read-out: CLH
# [9] = Cmax in ICR mouse plasma at 3 umol/kg, iv; assay type: ADME, cell-free; set-up: dose 3 umol/kg, route intravenous
# [10] = AUC in ICR mouse plasma at 3 umol/kg, iv; assay type: ADME, cell-free
# [11] = Clearance in ICR mouse plasma at 3 umol/kg, iv; assay type: ADME, cell-free
# [12] = Elimination half life in ICR mouse plasma at 3 umol/kg, iv; assay type: ADME, cell-free; conditions: read-out: beta t1/2 (converted)
# [13] = Volume of distribution at steady state in ICR mouse plasma at 3 umol/kg, iv; assay type: ADME, cell-free; conditions: read-out: Vdss
# [14] = Cmax in ICR mouse brain at 3 umol/kg, iv; assay type: ADME, tissue-based; set-up: dose 3 umol/kg, route intravenous
# [15] = Tmax in ICR mouse brain at 3 umol/kg, iv; assay type: ADME, tissue-based
# Brain = assay: AUC (0 to 1 hr) in ICR mouse brain at 3 umol/kg, iv; assay type: ADME, tissue-based; set-up: time < 1 hr, dose 3 umol/kg, route intravenous; conditions: in vivo
# [16] = Ratio of Cmax in brain to plasma in ICR mouse at 3 umol/kg, iv; assay type: ADME, cell-free; conditions: brain and plasma, read-out: BPR
# [17] = Tmax in ICR mouse plasma at 3 umol/kg, iv; assay type: ADME, cell-free
# Mus musculus [18] = assay: Antinociceptive activity in ICR mouse assessed as increase of tail flick latency at 1 umol/kg, iv after 20 to 60 mins by tail flick latency test relative to control; assay type: functional
# Mus musculus [19] = assay: Antinociceptive activity in ICR mouse assessed as increase of tail flick latency at 0.1 umol/kg, iv after 20 to 60 mins by tail flick latency test relative to control; assay type: functional
# Mus musculus [20] = assay: Antinociceptive activity in ICR mouse assessed as increase of tail flick latency at 0.3 umol/kg, iv after 20 to 60 mins by tail flick latency test relative to control; assay type: functional
# Mus musculus [21] = assay: Antinociceptive activity in iv dosed ICR mouse assessed as time taken for tail flick latency to return to within mean plus two standard deviations of baseline value following twice ED50 dose by tail flick latency test; assay type: functional
# Mus musculus [22] = assay: Antinociceptive activity in iv dosed ICR mouse assessed as inhibition of time spent licking formalin injected paw after 5 to 30 mins; assay type: functional, organism-based
# Mus musculus [23] = assay: Antinociceptive activity in ICR mouse assessed as inhibition of time spent licking formalin injected paw at 0.01 umol/kg, iv after 5 to 10 mins relative to control; assay type: functional
# Mus musculus [24] = assay: Antinociceptive activity in ICR mouse assessed as inhibition of time spent licking formalin injected paw at 0.03 umol/kg, iv after 5 to 10 mins relative to control; assay type: functional
# Mus musculus [25] = assay: Antinociceptive activity in ICR mouse assessed as inhibition of time spent licking formalin injected paw at 0.1 umol/kg, iv after 5 to 10 mins relative to control; assay type: functional
# Mus musculus [26] = assay: Antinociceptive activity in ICR mouse assessed as inhibition of time spent licking formalin injected paw at 0.3 umol/kg, iv after 5 to 10 mins relative to control; assay type: functional
# Mus musculus [27] = assay: Antinociceptive activity in ICR mouse assessed as inhibition of time spent licking formalin injected paw at 0.01 umol/kg, iv after 20 to 30 mins relative to control; assay type: functional
# Mus musculus [28] = assay: Antinociceptive activity in ICR mouse assessed as inhibition of time spent licking formalin injected paw at 0.03 umol/kg, iv after 20 to 30 mins relative to control; assay type: functional
# Mus musculus [29] = assay: Antinociceptive activity in ICR mouse assessed as inhibition of time spent licking formalin injected paw at 0.1 umol/kg, iv after 20 to 30 mins relative to control; assay type: functional
# Mus musculus [30] = assay: Antinociceptive activity in ICR mouse assessed as inhibition of time spent licking formalin injected paw at 0.3 umol/kg, iv after 20 to 30 mins relative to control; assay type: functional
# Cannabinoid receptor 1 [31] = molecular target: T1, Cannabinoid receptor 1; assay: biochemical
# [32] = Aqueous solubility of the compound in phosphate buffered saline at pH 7.4 by shake-flask method; assay type: physicochemical
# [33] = Aqueous solubility of the compound in phosphate buffered saline at pH 6.7 by shake-flask method; assay type: physicochemical
# [34] = Aqueous solubility of the compound in phosphate buffered saline at pH 7.1 by shake-flask method; assay type: physicochemical
# Mus musculus [35] = assay: Antinociceptive activity in ICR mouse assessed as increase of tail flick latency at 0.2 umol/kg, iv after 20 to 60 mins by tail flick latency test relative to control; assay type: functional
# [36] = Aqueous solubility of the compound in phosphate buffered saline at pH 6.9 by shake-flask method; assay type: physicochemical
# [37] = Aqueous solubility of the compound in citrate buffer at pH 4.9 by shake-flask method; assay type: physicochemical
# Mus musculus [38] = assay: Antinociceptive activity in ICR mouse assessed as increase of tail flick latency at 0.4 umol/kg, iv after 20 to 60 mins by tail flick latency test relative to control; assay type: functional
# T1 sequence (P21554 whole entry): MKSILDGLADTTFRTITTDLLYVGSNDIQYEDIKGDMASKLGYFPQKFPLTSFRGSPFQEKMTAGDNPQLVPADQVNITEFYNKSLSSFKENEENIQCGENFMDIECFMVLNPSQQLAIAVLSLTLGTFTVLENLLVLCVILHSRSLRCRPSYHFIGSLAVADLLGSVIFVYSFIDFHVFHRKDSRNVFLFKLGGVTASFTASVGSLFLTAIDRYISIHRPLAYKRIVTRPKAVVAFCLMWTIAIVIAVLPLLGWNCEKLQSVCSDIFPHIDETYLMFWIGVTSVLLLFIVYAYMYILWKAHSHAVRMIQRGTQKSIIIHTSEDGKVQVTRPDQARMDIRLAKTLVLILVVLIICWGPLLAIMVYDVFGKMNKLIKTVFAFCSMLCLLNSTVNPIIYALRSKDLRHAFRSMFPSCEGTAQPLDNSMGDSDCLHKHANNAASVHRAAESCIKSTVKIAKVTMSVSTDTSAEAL
# Chain of Cannabinoid receptor 2 (P34972 whole entry): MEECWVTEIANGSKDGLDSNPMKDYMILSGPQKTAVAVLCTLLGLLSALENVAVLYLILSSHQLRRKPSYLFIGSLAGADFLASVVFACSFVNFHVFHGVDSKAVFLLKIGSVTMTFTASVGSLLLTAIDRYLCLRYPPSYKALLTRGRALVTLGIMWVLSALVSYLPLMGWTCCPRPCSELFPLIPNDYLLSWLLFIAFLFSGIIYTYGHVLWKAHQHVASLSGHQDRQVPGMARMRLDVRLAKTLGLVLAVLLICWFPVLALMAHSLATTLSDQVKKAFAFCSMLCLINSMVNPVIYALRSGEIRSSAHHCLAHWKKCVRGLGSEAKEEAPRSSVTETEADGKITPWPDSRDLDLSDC
structure (smiles),measurement,setting,value
CCN1CCN(C(=O)c2cn(CC3CCCCC3)c3ccc(OC)cc23)CC1,EC50,Cannabinoid receptor 1 [1],> 3.16 µM
COc1cccc2c(C(=O)N3C[C@@H](C)N(C)[C@@H](C)C3)cn(CC3CCCCC3)c12.Cl,Activity,Mus musculus [2],Dose-dependent effect
same,solubility thermodynamic,[3],0.012 mg/mL
same,solubility thermodynamic,[4],> 4 mg/mL
same,Ki,Cannabinoid receptor 2,0.000794 µM
same,Ratio Ki,Homo sapiens [5],> 100
same,Ratio Ki,Homo sapiens [6],> 100
same,microsomal CLint,[7],> 270 µL/min/mg
same,microsomal CLint,[8],> 270 µL/min/mg
same,Cmax,[9],0.593 µg/mL
same,AUC,[10],0.253 µg·h/mL
same,clearance,[11],4.64 L/h/kg
same,half-life,[12],19.2 min
same,Vd,[13],2 L/kg
same,Cmax,[14],1620 ng/g
same,Tmax,[15],3 min
same,AUC,Brain,616 ng·h/g
same,Kp,[16],2.7
same,Tmax,[17],3 min
same,MPE,Mus musculus [18],100%
same,MPE,Mus musculus [19],14.5%
same,MPE,Mus musculus [20],72.3%
same,Time,Mus musculus [21],50 min
same,inhibition,Mus musculus [22],Dose-dependent effect
same,inhibition in vivo at 0.01 µmol/kg,Mus musculus [23],16.4%
same,inhibition in vivo at 0.03 µmol/kg,Mus musculus [24],49.5%
same,inhibition in vivo at 0.1 µmol/kg,Mus musculus [25],84%
same,inhibition in vivo at 0.3 µmol/kg,Mus musculus [26],97.8%
same,inhibition in vivo at 0.01 µmol/kg,Mus musculus [27],7.8%
same,inhibition in vivo at 0.03 µmol/kg,Mus musculus [28],86.9%
same,inhibition in vivo at 0.1 µmol/kg,Mus musculus [29],93.3%
same,inhibition in vivo at 0.3 µmol/kg,Mus musculus [30],99.8%
same,Ki,Cannabinoid receptor 1 [31],0.00126 µM
CS(=O)(=O)O.O=C(Cc1ccccc1)N/N=C1\C(=O)N(CC2CCCCC2)c2cc(OCCN3CCOCC3)ccc21,solubility thermodynamic,[32],< 0.5 mg/mL
O=C(NCc1ccccc1)c1cn(CC2CCCCC2)c2ccccc12,EC50,Cannabinoid receptor 1 [1],0.0631 µM
CCN1CCN(C(=O)c2cn(Cc3ccccc3)c3c(OC)cccc23)CC1,EC50,Cannabinoid receptor 1 [1],> 3.16 µM
CN(C)CCN(C)C(=O)c1cn(CC2CCCCC2)c2ccccc12,EC50,Cannabinoid receptor 1 [1],> 3.16 µM
O=C(Cc1ccccc1)N/N=C1\C(=O)N(CC2CCCCC2)c2cc(OCCN3CCOCC3)ccc21,EC50,Cannabinoid receptor 1 [1],0.0631 µM
CCN1[C@H](C)CN(C(=O)c2cn(CC3CCCCC3)c3c(OC)cccc23)C[C@@H]1C.Cl,solubility thermodynamic,[3],0.009 mg/mL
same,solubility thermodynamic,[4],> 4 mg/mL
CCN1CCN(C(=O)c2cn(CC3CCCCC3)c3cc(OC)ccc23)CC1,EC50,Cannabinoid receptor 1 [1],0.158 µM
CCN1CCN(C(=O)c2cn(CC3CCCCC3)c3cc(Cl)ccc23)CC1,EC50,Cannabinoid receptor 1 [1],1.58 µM
CCN1CCN(C(=O)c2cn(CC3CCCCC3)c3cccc(F)c23)CC1,EC50,Cannabinoid receptor 1 [1],0.251 µM
CCN1CCN(C(=O)c2cn(CC3CCCCC3)c3c(OC)cccc23)CC1.O=C(O)/C=C\C(=O)O,solubility thermodynamic,[33],0.216 mg/mL
same,solubility thermodynamic,[4],3.4 mg/mL
CCN1CCN(C(=O)c2cn(CC3CCCCC3)c3c(OC)cccc23)CC1(C)C.Cl,solubility thermodynamic,[34],0.181 mg/mL
same,solubility thermodynamic,[4],3.83 mg/mL
same,EC50,Cannabinoid receptor 1 [1],0.126 µM
COc1cccc2c(C(=O)N3CCN(C)[C@@H](C)C3)cn(CC3CCCCC3)c12.Cl,MPE,Mus musculus [35],18.3%
same,Activity,Mus musculus [2],Dose-dependent effect
same,solubility thermodynamic,[36],0.129 mg/mL
same,solubility thermodynamic,[37],2.81 mg/mL
same,Ki,Cannabinoid receptor 2,0.00158 µM
same,Ratio Ki,Homo sapiens [5],> 100
same,Ratio Ki,Homo sapiens [6],> 100
same,microsomal CLint,[7],> 270 µL/min/mg
same,microsomal CLint,[8],> 270 µL/min/mg
same,Cmax,[9],0.62 µg/mL
same,AUC,[10],0.248 µg·h/mL
same,clearance,[11],4.64 L/h/kg
same,half-life,[12],24.6 min
same,Vd,[13],2.1 L/kg
same,Cmax,[14],2460 ng/g
same,Tmax,[15],10.2 min
same,AUC,Brain,804 ng·h/g
same,Kp,[16],4
same,Tmax,[17],3 min
same,MPE,Mus musculus [38],50.1%
same,MPE,Mus musculus [18],100%
same,Time,Mus musculus [21],90 min
same,inhibition,Mus musculus [22],Dose-dependent effect
same,inhibition in vivo at 0.01 µmol/kg,Mus musculus [23],25.7%
same,inhibition in vivo at 0.03 µmol/kg,Mus musculus [24],66%
same,inhibition in vivo at 0.1 µmol/kg,Mus musculus [25],99%
same,inhibition in vivo at 0.3 µmol/kg,Mus musculus [26],100%
same,inhibition in vivo at 0.01 µmol/kg,Mus musculus [27],49.2%
same,inhibition in vivo at 0.03 µmol/kg,Mus musculus [28],79.7%
same,inhibition in vivo at 0.1 µmol/kg,Mus musculus [29],93.4%
same,inhibition in vivo at 0.3 µmol/kg,Mus musculus [30],100%
same,Ki,Cannabinoid receptor 1 [31],0.00126 µM
CN1CCN(C(=O)c2cn(CC3CCCCC3)c3ccccc23)CC1,EC50,Cannabinoid receptor 1 [1],0.501 µM
COc1cccc2c(C(=O)N3CCN(C)[C@H](C)C3)cn(CC3CCCCC3)c12.Cl,solubility thermodynamic,[34],0.088 mg/mL
same,solubility thermodynamic,[4],2.86 mg/mL
same,EC50,Cannabinoid receptor 1 [1],0.126 µM
COc1cccc2c(C(=O)N3CCN(C)C(C)(C)C3)cn(CC3CCCCC3)c12.Cl,solubility thermodynamic,[3],0.129 mg/mL
same,solubility thermodynamic,[4],2.16 mg/mL
same,EC50,Cannabinoid receptor 1 [1],0.158 µM
